Test results as given in the supplement of paper PMC4862054.

What was measured:
Conditions in all cases: 72 h
[1] = tested on: CAL-148
Procedure, shortened: (§1)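 Two sequential readouts followed a 72 h incubation of breast cancer cell lines with compound at 5 concentrations in 10-fold steps over a compound-specific 10,000-fold range: CellTox Green fluorescence (485/520 nm) for cell death, then CellTiter-Glo luminescence, after 10 min at room temperature, for viability. Each plate was normalised to 0.1 % DMSO and a positive kill control. Dose-response curves were fitted for EC50, censored at the top concentration.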

[2] = tested on: CAL-120
Procedure, shortened: as §1

[3] = tested on: MDA-MB-453
Procedure, shortened: as §1

[4] = tested on: BT-549
Procedure, shortened: as §1

[5] = tested on: MFM-223
Procedure, shortened: as §1

[6] = tested on: Hs578T
Procedure, shortened: as §1

[7] = tested on: DU-4475
Procedure, shortened: as §1

[8] = tested on: HCC1143
Procedure, shortened: as §1

[9] = tested on: CAL-51
Procedure, shortened: as §1

[10] = tested on: BT-474
Procedure, shortened: as §1

[11] = tested on: MDA-MB-436
Procedure, shortened: as §1

[12] = tested on: HDQ-P1
Procedure, shortened: as §1

[13] = tested on: MCF-10A
Procedure, shortened: as §1

[14] = tested on: SK-BR-3
Procedure, shortened: as §1

[15] = tested on: MDA-MB-231
Procedure, shortened: as §1

[16] = tested on: HCC1599
Procedure, shortened: as §1

[17] = tested on: CAL-85-1
Procedure, shortened: as §1

[18] = tested on: HCC1937
Procedure, shortened: as §1

[19] = tested on: CAL-148; remark: listed apart in the source
Protocol: (§2)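 Drug sensitivity and resistance testing (DSRT) of breast cancer cell lines in 384-well plates, 5 concentrations in 10-fold dilutions over a compound-specific 10,000-fold range. After 72 h, cytotoxicity was read by CellTox Green fluorescence and viability by CellTiter-Glo luminescence (multiplexed), normalised to DMSO and benzethonium chloride controls. EC50 is the inflection point of the fitted dose-response curve (bottom asymptote free, so it can be relative for partial curves) and is censored at the highest tested concentration. Rows with DSS 0 (no meaningful response) were excluded.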

[20] = tested on: MFM-223; remark: listed apart in the source
Protocol: as §2

[21] = tested on: Hs578T; remark: listed apart in the source
Protocol: as §2

[22] = tested on: DU-4475; remark: listed apart in the source
Protocol: as §2

[23] = tested on: CAL-51; remark: listed apart in the source
Protocol: as §2

[24] = tested on: BT-474; remark: listed apart in the source
Protocol: as §2

[25] = tested on: MDA-MB-231; remark: listed apart in the source
Protocol: as §2

[26] = tested on: CAL-85-1; remark: listed apart in the source
Protocol: as §2

[27] = tested on: HCC1937; remark: listed apart in the source
Protocol: as §2

[28] = tested on: CAL-148; remark: listed apart in the source
Procedure, shortened: (§3)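 Compound dissolved in 5 µl medium was placed in 384-well plates before 20 µl of breast cancer cell suspension was added, and the plates were incubated for 72 h. Cells then received 2.5 µl CellTiter-Blue for 2 h at 37 °C, and fluorescence was read at 560/590 nm. EC50 values come from percent-inhibition dose-response fits that were censored at the highest concentration, with plates normalised to vehicle and a positive kill control and rows with a zero drug sensitivity score excluded.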

[29] = tested on: MDA-MB-436; remark: listed apart in the source
Protocol: as §2

[30] = tested on: HCC1599; remark: listed apart in the source
Protocol: as §2

[31] = tested on: MDA-MB-468
Protocol: as §2

[32] = tested on: CAL-120; remark: listed apart in the source
Protocol: as §2

[33] = tested on: MDA-MB-453; remark: listed apart in the source
Protocol: as §2

[34] = tested on: MCF-10A; remark: listed apart in the source
Protocol: as §2

[35] = tested on: HCC1143; remark: listed apart in the source
Procedure, shortened: as §3

[36] = tested on: HCC1599; remark: listed apart in the source
Procedure, shortened: as §3

[37] = tested on: BT-549; remark: listed apart in the source
Protocol: as §2

[38] = tested on: HCC1143; remark: listed apart in the source
Protocol: as §2

[39] = tested on: HDQ-P1; remark: listed apart in the source
Protocol: as §2

| EC50, CellTiter-Glo [3] [nM] | EC50, CellTiter-Glo [4] [nM] | EC50, CellTiter-Glo [8] [nM] | EC50, CellTiter-Glo [10] [nM] | EC50, CellTiter-Glo [11] [nM] | EC50, CellTiter-Glo [14] [nM] | EC50, CellTiter-Glo [15] [nM] | EC50, CellTiter-Glo [16] [nM] | EC50, CellTiter-Glo [18] [nM] | EC50, CellTiter-Blue viability [35] [nM] | EC50, CellTiter-Blue viability [36] [nM] | SMILES | EC50, CellTiter-Glo [1] [nM] | EC50, CellTiter-Glo [2] [nM] | EC50, CellTiter-Glo [5] [nM] | EC50, CellTiter-Glo [6] [nM] | EC50, CellTiter-Glo [7] [nM] | EC50, CellTiter-Glo [9] [nM] | EC50, CellTiter-Glo [12] [nM] | EC50, CellTiter-Glo [13] [nM] | EC50, CellTiter-Glo [17] [nM] | EC50, CellTox Green [19] [nM] | EC50, CellTox Green [20] [nM] | EC50, CellTox Green [21] [nM] | EC50, CellTox Green [22] [nM] | EC50, CellTox Green [23] [nM] | EC50, CellTox Green [24] [nM] | EC50, CellTox Green [25] [nM] | EC50, CellTox Green [26] [nM] | EC50, CellTox Green [27] [nM] | EC50, CellTiter-Blue viability [28] [nM] | EC50, CellTox Green [29] [nM] | EC50, CellTox Green [30] [nM] | EC50, CellTox Green [31] [nM] | EC50, CellTox Green [32] [nM] | EC50, CellTox Green [33] [nM] | EC50, CellTox Green [34] [nM] | EC50, CellTox Green [37] [nM] | EC50, CellTox Green [38] [nM] | EC50, CellTox Green [39] [nM] |
| --- | --- | --- | --- | --- | --- | --- | --- | --- | --- | --- | --- | --- | --- | --- | --- | --- | --- | --- | --- | --- | --- | --- | --- | --- | --- | --- | --- | --- | --- | --- | --- | --- | --- | --- | --- | --- | --- | --- | --- |
| 8350 | 548 | 7820 | 2160 | 1560 | 6390 | 1430 | 5830 | 4060 | – | – | COc1cc(O)c2c(c1)/C=C/C[C@H](O)[C@H](O)C(=O)/C=C\C[C@H](C)OC2=O [(5Z)-7-Oxozeaenol] | 1460 | 2450 | 2170 | 3250 | 173 | 3770 | 2330 | 532 | 605 | 75.8 | 277 | 253 | 759 | 9350 | 4930 | 864 | 66.5 | 305 | – | – | – | – | – | – | – | – | – | – |
| – | – | – | 2620 | – | 970 | – | 8240 | – | – | – | COc1cc(OC2CCN(C)CC2)ccc1Nc1ncc2c(n1)n(C1CCCC1)c(=O)n2C [AZ 3146] | – | – | – | – | – | 1010 | – | 9260 | 3780 | – | – | – | – | 768 | – | – | – | – | 1990 | > 10000 | > 10000 | – | – | – | – | – | – | – |
| 158 | 1010 | 803 | 458 | 1250 | 229 | 564 | 826 | 2180 | 971 | 348 | O=C(/C=C/c1cccc(S(=O)(=O)Nc2ccccc2)c1)NO [Belinostat] | 370 | 634 | 264 | 989 | 358 | 29.2 | 2830 | 1150 | 738 | 1070 | 745 | 1260 | 519 | 680 | 1600 | 261 | 1010 | – | 322 | – | – | 3690 | 1410 | > 10000 | 30.4 | – | – | – |
| – | 2360 | > 10000 | 5150 | – | – | 9280 | – | 6150 | – | – | Nc1cc(C(F)(F)F)c(-c2cc(N3CCOCC3)nc(N3CCOCC3)n2)cn1 [Buparlisib] | – | 8230 | 225 | 2330 | – | 2400 | 1000 | 513 | – | – | – | 5580 | – | 2900 | 5170 | 3580 | – | – | – | – | – | – | – | – | 8430 | 7700 | – | – |
| 2960 | 1000 | 8690 | 9140 | 4330 | 11600 | 6150 | 9370 | 8340 | – | – | CCOC(=O)CCNc1cc(N2CCc3ccccc3CC2)nc(-c2ccccn2)n1 [GSK-J4] | 3440 | 12100 | 7940 | 12200 | 7170 | 1340 | 11700 | 9270 | 5180 | 10900 | 17400 | 2280 | 5920 | 9960 | 2590 | 11300 | 4080 | 24100 | – | 21200 | 5440 | 8140 | 20000 | 22600 | 18100 | 17800 | 321 | 9770 |
| – | 2510 | 1620 | 1110 | 1510 | 4030 | 1300 | – | 2530 | – | – | Cc1cc(Nc2cc(CN3CCOCC3)c3nc(C)c(Cc4ccc(Cl)cc4F)n3n2)n[nH]1 [Gandotinib] | – | 5010 | 420 | 2660 | 7860 | 775 | 1930 | 3140 | 955 | – | – | 2040 | – | 1390 | – | – | 6590 | – | – | 241 | – | 4500 | – | – | – | – | – | – |
| – | – | – | – | 540 | – | – | – | – | – | – | NC(=O)c1ccc(I)c([N+](=O)[O-])c1 [Iniparib] | – | – | – | – | – | – | – | – | – | – | – | – | – | – | – | – | – | – | – | – | – | – | > 10000 | – | – | – | – | – |
| – | 9390 | – | 2550 | 1160 | 1180 | – | 6850 | – | 2350 | 692 | CCc1c2c(nc3ccc(OC(=O)N4CCC(N5CCCCC5)CC4)cc13)-c1cc3c(c(=O)n1C2)COC(=O)[C@]3(O)CC [Irinotecan] | 1450 | 2590 | – | – | 1840 | 3290 | – | 4290 | – | 304 | – | > 10000 | – | 1220 | – | – | – | – | 1170 | – | – | – | 5530 | – | – | – | – | – |
| 1620 | 1880 | – | 7580 | – | 7390 | > 10000 | 9360 | > 10000 | – | – | Cc1ccc(NC(=O)c2ccc(CN3CCN(C)CC3)cc2)cc1Nc1nc(-c2cccnc2)cs1 [Masitinib] | – | – | > 10000 | – | – | 5460 | 4910 | – | – | – | – | – | – | – | – | 3220 | – | – | – | – | 8820 | 7160 | – | – | – | – | – | – |
| 3110 | 1910 | 4780 | 3550 | 5340 | – | 2580 | – | 4830 | – | – | COC(=O)c1ccc2c(c1)NC(=O)/C2=C(\Nc1ccc(N(C)C(=O)CN2CCN(C)CC2)cc1)c1ccccc1 [Nintedanib] | – | 2380 | 408 | – | – | 1880 | 1080 | 584 | – | – | – | – | – | 2950 | 2540 | 2190 | – | 1650 | – | 8830 | – | 5880 | – | – | 7350 | 6880 | – | – |
